Data reported in patent US7250157B2, “Dermatological compositions and methods” (Applied Genetics Incorporated Dermatics, priority 1996, dated 2007).

How the values were obtained:
[1] = tested on: Cloudman S91 mouse melanoma cell line; experiment: Trypsinization detachment time of S91 cells; format: cell-based
Method: (§1) Following this microscopic examination, cells were detached from dishes by trypsin. The time required for detachment by trypsin was recorded as an additional indicator of the phenotypic effects of test compounds. For each treatment, a subsample of cells was counted to determine the effects of treatment compounds on cellular proliferation. The remainder of cells were used for determination of melanin content. Melanin was extracted from cells by vortexing for 15 min in 1N NaOH. Standards were prepared by dissolving melanin (Sigma) in 1 N NaOH (Eller, et al., 1996). Absorbance of standards and samples was measured at 475 nm. Melanin was expressed as pg melanin/cell.

[2] = tested on: Cloudman S91 mouse melanoma cell line; experiment: Microscopic morphology (differentiation) of S91 cells; format: cell-based
Method: (§2) The Cloudman S91 mouse melanoma cell line was obtained from American Type Culture Collection (ATCC). Cells were cultured in Dulbecco's Modified Eagles Medium (DMEM) containing 10% calf serum, 2 mM L-glutamine, 10 U Penicillin/ml and 10 ug Streptomycin/ml according to a previously published protocol (Eller, et al., Proc. Natl. Acad. Sci. 93:1087-92. 1996). For testing propylene glycol and analogues for induction of melanogenesis, S91 cells were plated at 10^5 cells/35 mm dish in 10% calf serum. One day after plating, media was removed and replaced with media containing 2% calf serum and test compounds (Eller, et al., 1996). Cells were cultured for 6 days at 37° C. in 5% CO2 in a humidified incubator. Following this treatment period, cells were examined microscopically and the portion of dedifferentiated and differentiated cells was estimated. Previous studies have shown that dedifferentiated S91 cells have a rounded, spindly appearance while differentiated S91 cells have a flattened, cuboidal, multipolar and dendritic appearance (Orlow, et al., Exp. Cell Res. 191:209-218, 1990).

[3] = tested on: Cloudman S91 mouse melanoma cell line; experiment: Melanin content of S91 cells after treatment with test compound; format: cell-based
Method: The Cloudman S91 mouse melanoma cell line was obtained from American Type Culture Collection (ATCC). […] For testing propylene glycol and analogues for induction of melanogenesis, S91 cells were plated at 10^5 cells/35 mm dish in 10% calf serum. […] Cells were cultured for 6 days at 37° C. in 5% CO2 in a humidified incubator. Following this treatment period, cells were examined microscopically and the portion of dedifferentiated and differentiated cells was estimated.
as §1, with “Melanin was extracted from cells by vortexing for 15 min in 1N NaOH. Standards were prepared by dissolving melanin (Sigma) in 1 N NaOH (Eller, et al., 1996).” left out

[4] = tested on: Cloudman S91 mouse melanoma cell line; experiment: Cell count (proliferation, toxicity) of treated S91 cells; format: cell-based
Method: as §2, §1

[5] = tested on: American short-haired guinea pigs; experiment: Topical melanogenesis (pigmentation rating) in guinea pigs; format: in vivo, guinea pig; conditions: for relative melanogenesis rating (mean ±SE), scale 0-4: 25 μl twice per day for 5 days, rated two weeks after, full strength solutions
Method: Compounds were tested for melanogenic activity in vivo by application to American short-haired guinea pigs. Treatment sites were created by removal of fur using Nair® brand depilatory. In the Table, the numbers presented are the relative melanogenesis rating (mean ±SE), and are arranged according to the relative location on the animal, with the head being to the left and the tail being to the right. Propylene glycol (PG=13.6M), 2,3-butanediol (2,3-BD=10.95M), and 1,2-cis-cyclopentanediol (1,2-cs-CPD=10.7M) were applied as full strength solutions. 3,3-dimethyl-1,2-butanediol (3,3-M-1,2-BD) was applied as a 4M solution dissolved in ethanol. Two weeks following cessation of treatments, the degree of pigmentation was subjectively rated according to the following scale:
In order to minimize the effects of dimunition of response from head to tails of animals, all future experiments were done using only treatment spots located towards the tails of animals (c and d in Table 7). Deemed as additionally beneficial, in this area of the animal differences of responsiveness to strong and weak inducers of pigmentation, as deduced from cell culture, were greatest. […] Pigmentation ratings were corrected for background (control treatment spots), normalized to 1M to account for the different amounts of each agent applied, and then normalized to results for 1,2-PG (Table 8). […] It is anticipated that further improvements in formulation will additionally improve responsiveness to 5-NBene-2,2-DM and other compounds in this invention.
In FIG. 5, a, b, c and d indicate treatment spots that transverse the anterior-posterior axis along the backs of guinea pigs.

| Structure (SMILES) | Trypsinization Detachment Time ([1]; 50 mM) [min] | Trypsinization Detachment Time ([1]; 150 mM) [min] | Morphology Flattened Cuboidal ([2]; 50 mM) [%] | Morphology Rounded Spindly ([2]; 50 mM) [%] | Morphology Flattened Cuboidal ([2]; 150 mM) [%] | Morphology Rounded Spindly ([2]; 150 mM) [%] | pg Melanin/Cell ([3]; 50 mM) [pg Melanin/Cell] | ug Melanin ([3]; 50 mM) [µg] | pg Melanin/Cell ([3]; 150 mM) [pg Melanin/Cell] | ug Melanin ([3]; 150 mM) [µg] | Cells (×10^6) ([4]; 50 mM) | Cells (×10^6) ([4]; 150 mM) | further results |
| --- | --- | --- | --- | --- | --- | --- | --- | --- | --- | --- | --- | --- | --- |
| C[C@H](O)CO [PG-S-1,2, (S)-(+)-1,2-Propanediol] | 3 | 6 | 25 | 75 | 50 | 50 | 17.1 | 1.51 | 25.5 | 2.04 | 0.088 ×10^6 | 0.080 ×10^6 | effect on cell proliferation ([4]; levels used in this experiment (50 and 150 mM)): no reduction of cell proliferation |
| OCC(O)CO [G, Glycerol] | 3 | 3 | – | 100 | 25 | 75 | 11.2 | 1.03 | 13.0 | 1.09 | 0.092 ×10^6 | 0.084 ×10^6 | induction of melanogenesis (in words) ([3]; concentrations tested in Example 2): only a slight effect on melanogenesis and differentiation |
| CC(O)C(C)O (stereo not shown) [BD-2,3, 2,3-butanediol] | 3 | 9 | 75 | 25 | 100 | – | 15.6 | 1.12 | 23.8 | 0.95 | 0.072 ×10^6 | 0.040 ×10^6 | melanogenesis in guinea pigs (in words) ([5]; same relative body position): only slightly better melanogenic agents than propylene glycol; relative melanogenesis rating (mean ±SE), scale 0-4 ([5]; site b): 1.33 ± 0.17^2; relative melanogenesis rating (mean ±SE), scale 0-4 ([5]; site d (tail)): 0.25 ± 0.14; Concentration Required for ≧2-fold Melanin Induction in S91 Cells [3]: 100 mM; reduction of cell numbers ([4]; 150 mM): one-third |
| O=C1CCCN1 [2-pyrrolidone] | – | – | – | – | – | – | – | – | – | – | – | – | morphological differentiation of S91 cells [2]: profound morphological differentiation; melanogenesis in S91 cells (≧2-fold increase = significant) ([3]; range of concentrations up to a toxic dose): did not induce significant (≧2-fold increase) melanogenesis |
